Assay results published in article PMC9684503 (Communications Biology, 2022).
Where “and” joins values, the source holds several entries; their conditions need not be identical. Identical values can stand only once. Counter-ions that a name gives are not always drawn. Like-named read-outs stand apart in the source and are kept apart here.

How the values were obtained:
VMAT2 [1] = biological target: T1, VMAT2 (Rattus norvegicus, UniProt Q01827); assay: [3H]-DTBZ competition assay in Hek293 cells expressing VMAT2;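 on all read-outs here: HEK293 cells transfected with VMAT2, pretreated 30 min with compound, then given 5 nM [3H]-DTBZ for 20 min at 37 °C, bound label read by scintillation counting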; settings: for effect on [3H]-DTBZ binding compared with DMSO control (one-way ANOVA, p < 0.001): 50 μM compound; for [3H]-DTBZ binding relative to no compound (=1), replicate samples: Fig. 3b source data
T1 sequence (Q01827 whole entry): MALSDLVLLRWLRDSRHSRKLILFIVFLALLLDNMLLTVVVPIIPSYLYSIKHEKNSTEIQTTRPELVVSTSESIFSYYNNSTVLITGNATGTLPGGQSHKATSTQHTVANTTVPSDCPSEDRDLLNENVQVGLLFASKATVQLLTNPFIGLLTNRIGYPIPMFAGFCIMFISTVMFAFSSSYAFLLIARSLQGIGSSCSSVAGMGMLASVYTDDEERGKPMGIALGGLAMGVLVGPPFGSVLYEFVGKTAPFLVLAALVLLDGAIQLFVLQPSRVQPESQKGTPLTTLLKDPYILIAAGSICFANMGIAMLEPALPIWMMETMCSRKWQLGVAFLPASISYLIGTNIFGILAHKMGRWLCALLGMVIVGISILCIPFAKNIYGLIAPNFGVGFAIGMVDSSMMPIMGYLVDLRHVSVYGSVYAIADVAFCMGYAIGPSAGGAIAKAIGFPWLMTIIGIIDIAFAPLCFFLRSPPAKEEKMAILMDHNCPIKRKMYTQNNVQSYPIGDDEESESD

rat VMAT2-His = biological target: T2, rat VMAT2-His (Rattus norvegicus, UniProt Q01827); assay: Differential scanning fluorimetry (DSF) with CPM dye: change of melting temperature of purified VMAT2; assay type: binding; settings: for ΔTm at 12 µM: compound 0,12 µM; for ΔTm at 37 µM: compound 0,37 µM; for ΔTm at 10 µM: compound 10 µM; for ΔTm at 30 µM: compound 30 µM; for ΔTm at 90 µM: compound 90 µM; for ΔTm at 270 µM: compound 270 µM
T2 construct: The ORF of rat VMAT2 was subcloned into a pFastBac vector; His; made in house; host or cells: Sf9 insect cells (baculovirus)
T2 sequence (Q01827 whole entry): as above
Procedure: To screen purified VMAT2 by DSF we expressed the rat VMAT2 protein, as VMAT2-His, in SF9 insect cells using the baculovirus expression system. The transporter was solubilized and purified in n-Dodecyl-β-D-maltoside (DDM)/cholesterol hemisuccinate (CHS) micelles by immobilized metal affinity chromatography (IMAC) and size exclusion chromatography (SEC). […] Screening was performed using DSF and the thiol-reactive dye 7-diethylamino-3-(4-maleimidophenyl)-4-methylcoumarin (CPM), an approach that monitors changes to the protein melting temperature (Tm) upon compound binding. Using CPM or other dyes, DSF-based assays have successfully been used in molecular-based screenings[34],[35]. […] DSF screening was performed in 384 well plates using the thiol-sensing dye 7-diethylamino-3-(4-maleimidophenyl)-4-methylcoumarin (CPM) (Merck). […] Protein melting curves were determined using a LightCycler 480 ii RT-PCR system (Roche), with a temperature ramp increasing from 25 to 95 °C at a rate of 2 °C/min. Data analysis was performed using an in-house software that automatically determines the protein midpoint melting temperature (Tm) based on the second derivative of the melting curves or using the HTSDSF explorer as described in ref. [58]. […] 6 μl of this mix was dispensed to each well of 384 well plates using a Multidrop™ Combi Reagent Dispenser (Thermo Scientific). […] All initial hits were then subjected to an initial validation in triplicates with a compound concentration of 200 μM and a ΔTm > 5× the standard deviation (SD) cut off. […] Processing of the data from the primary screening and the concentration-dependent validation was performed as reported.

rat VMAT2 = rat VMAT2 (Rattus norvegicus, UniProt Q01827); assay: FFN206 uptake assay in transfected Hek293 cells; settings: for VMAT2-specific FFN206 uptake relative to DMSO (=1), replicate samples: Fig. 2a source data, 25 μM compound; for FFN206 uptake relative to no compound (=1), replicate samples: Fig. 2b/2c source data
rat VMAT2, sequence (Q01827 whole entry): as above

VMAT2 [2] = biological target: T1, VMAT2; settings: 50 µM
human VMAT1 = biological target: T3, human VMAT1 (Homo sapiens, UniProt P54219); assay: FFN206 uptake assay in transfected Hek293 cells; assay type: cell-based; settings: Table S1, substrate uptake assays in transfected Hek293 cells
T3 construct: expressed in transfected cells; host or cells: Hek293 cells, transient
T3 sequence (P54219 1-525): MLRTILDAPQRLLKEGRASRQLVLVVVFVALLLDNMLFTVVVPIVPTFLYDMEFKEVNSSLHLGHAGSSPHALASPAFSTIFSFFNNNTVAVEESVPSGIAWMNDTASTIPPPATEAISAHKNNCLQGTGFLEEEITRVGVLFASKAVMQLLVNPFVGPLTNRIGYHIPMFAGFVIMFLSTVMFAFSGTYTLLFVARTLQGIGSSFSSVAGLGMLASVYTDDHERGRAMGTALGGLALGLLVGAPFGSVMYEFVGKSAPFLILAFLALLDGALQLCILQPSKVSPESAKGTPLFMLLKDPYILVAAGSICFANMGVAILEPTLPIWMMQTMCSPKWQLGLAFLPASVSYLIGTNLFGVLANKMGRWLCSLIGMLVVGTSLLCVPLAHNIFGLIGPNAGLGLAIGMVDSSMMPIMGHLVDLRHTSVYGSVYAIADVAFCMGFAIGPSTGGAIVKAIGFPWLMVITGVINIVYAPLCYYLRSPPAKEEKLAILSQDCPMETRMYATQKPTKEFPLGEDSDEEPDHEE

rat VMAT2 Q143A = rat VMAT2 Q143A (Rattus norvegicus, UniProt Q01827, Q143A); assay: FFN206 uptake assay, VMAT2 mutant
rat VMAT2 Q143A, sequence (Q01827 whole entry Q143A): as the sequence (Q01827 whole entry) above, with Q143A counted along it
Procedure: (§1) For activity assays, [^3H]-DTBZ and [^3H]-SMT binding and competition assays (see section below), several VMAT2 mutants were prepared. […] In addition, a selection of rVMAT2 mutants carrying mutations designed from binding modes identified by docking and MD-simulation was prepared in a pcDNA3.1 rVMAT2-Strep tag II plasmid.

rat VMAT2 P314A = rat VMAT2 P314A (Rattus norvegicus, UniProt Q01827, P314A); assay: FFN206 uptake assay, VMAT2 mutant
rat VMAT2 P314A, sequence (Q01827 whole entry P314A): as the sequence (Q01827 whole entry) above, with P314A counted along it
Procedure: as §1

human VMAT2 = biological target: T4, human VMAT2 (Homo sapiens, UniProt Q05940); assay: FFN206 uptake assay in transfected Hek293 cells; assay type: cell-based; settings: Table S1, substrate uptake assays in transfected Hek293 cells
T4 construct: expressed in transfected cells; host or cells: Hek293 cells, transient
T4 sequence (Q05940 whole entry): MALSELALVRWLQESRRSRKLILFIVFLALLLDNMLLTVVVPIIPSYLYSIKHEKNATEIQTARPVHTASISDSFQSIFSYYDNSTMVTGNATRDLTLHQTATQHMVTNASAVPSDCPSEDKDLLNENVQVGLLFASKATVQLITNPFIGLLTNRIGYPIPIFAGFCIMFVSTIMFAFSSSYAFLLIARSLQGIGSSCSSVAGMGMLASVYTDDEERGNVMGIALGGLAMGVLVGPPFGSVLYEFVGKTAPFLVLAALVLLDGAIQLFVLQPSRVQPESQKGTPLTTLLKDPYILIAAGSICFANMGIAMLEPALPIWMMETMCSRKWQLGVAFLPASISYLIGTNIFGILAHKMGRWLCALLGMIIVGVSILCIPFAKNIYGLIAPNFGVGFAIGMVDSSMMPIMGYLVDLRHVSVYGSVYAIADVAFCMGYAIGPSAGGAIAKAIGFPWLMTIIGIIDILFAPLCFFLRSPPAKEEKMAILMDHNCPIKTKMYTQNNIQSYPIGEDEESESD

[3] = Table 1, DSF screening, mean ± SD of triplicates
[4] = Table S2 dose response, read-out: ΔTm
[5] = Table S2 dose response, compound 1,11 µM, read-out: ΔTm
[6] = Table S2 dose response, compound 3,33 µM, read-out: ΔTm

In the case of `OC(CCN1CCCCC1)(c1ccccc1)C1CC2C=CC1C2` (stereo not drawn) [Biperiden, Biperiden hydrochloride], the “effect on [3H]-DTBZ binding compared with DMSO control (one-way ANOVA, p < 0.001)” value (VMAT2 [1]) is reported as “no statistically significant effect”, the ΔTm (rat VMAT2-His; [3]) is reported as 1.32 ± 0.22 oC and the ΔTm at 12 µM (rat VMAT2-His; [4]) is reported as 0.2 °C. For the same molecule, the ΔTm at 37 µM (rat VMAT2-His; [4]) was 0.33 °C, the ΔTm at 10 µM (rat VMAT2-His; [4]) was 1.11 °C and the ΔTm at 30 µM (rat VMAT2-His; [4]) was 1.6 °C. The ΔTm at 90 µM (rat VMAT2-His; [4]) was 0.9 °C, the ΔTm at 270 µM (rat VMAT2-His; [4]) was 2.12 °C and the ΔTm (rat VMAT2-His; [5]) was 0.45 °C. The ΔTm (rat VMAT2-His; [6]) was 0.56 °C, the “VMAT2-specific FFN206 uptake relative to DMSO (=1), replicate samples” value (rat VMAT2) was 0.4909 and 0.5029 and 0.6058 and 0.5946 and the inhibition at 25 µM (rat VMAT2; HEK293, read-out: inhibitory effect on VMAT2 activity) was at most 50%. The activity (VMAT2 [2]) was 79.9 ± 19.1%.

With `O=C1Cc2cc(CCN3CCN(c4nsc5ccccc45)CC3)c(Cl)cc2N1` [Ziprasidone, Ziprasidone Hydrochloride] the IC50 (human VMAT1) was 35 nM, the “effect on [3H]-DTBZ binding compared with DMSO control (one-way ANOVA, p < 0.001)” value (VMAT2 [1]) was “statistically significantly effect” and the “[3H]-DTBZ binding relative to no compound (=1), replicate samples” value (VMAT2 [1]; compound 0.0017) was 0.8751 and 1.064 and 1.013 and 0.8455. For the same molecule, the “[3H]-DTBZ binding relative to no compound (=1), replicate samples” value (VMAT2 [1]; compound 0.0051) was 0.8936 and 1.069 and 1.018 and 0.8322, the “[3H]-DTBZ binding relative to no compound (=1), replicate samples” value (VMAT2 [1]; compound 0.0152) was 0.7303 and 1.42 and 1.076 and 0.8096 and the “[3H]-DTBZ binding relative to no compound (=1), replicate samples” value (VMAT2 [1]; compound 0.0457) was 0.8393 and 0.4876 and 0.8108 and 0.8579. For the same molecule, the “[3H]-DTBZ binding relative to no compound (=1), replicate samples” value (VMAT2 [1]; compound 0.1372) was 1.015 and 0.924 and 0.9381 and 0.7974, the “[3H]-DTBZ binding relative to no compound (=1), replicate samples” value (VMAT2 [1]; compound 0.4115) was 0.6748 and 0.8924 and 0.7988 and 0.4363 and the “[3H]-DTBZ binding relative to no compound (=1), replicate samples” value (VMAT2 [1]; compound 1.2346) was 0.4427 and 0.7246 and 0.4654 and 0.6729. The “[3H]-DTBZ binding relative to no compound (=1), replicate samples” value (VMAT2 [1]; compound 3.7037) was 0.6274 and 0.382 and 0.3472 and 0.5985, the “[3H]-DTBZ binding relative to no compound (=1), replicate samples” value (VMAT2 [1]; compound 11.1111) was 0.6424 and 0.4197 and 0.5023 and 0.5651 and the “[3H]-DTBZ binding relative to no compound (=1), replicate samples” value (VMAT2 [1]; compound 33.3333) was 0.4189 and 0.1764 and 0.1269 and 0.541. The “[3H]-DTBZ binding relative to no compound (=1), replicate samples” value (VMAT2 [1]; compound 100.0000 (μM per methods)) was 0.3228 and 0.1927 and 0.2304 and 0.2985, the ΔTm (rat VMAT2-His; [3]) was 2.69 ± 0.12 oC and the ΔTm at 12 µM (rat VMAT2-His; [4]) was 0.41 °C. The ΔTm at 37 µM (rat VMAT2-His; [4]) was 0.68 °C, the ΔTm at 10 µM (rat VMAT2-His; [4]) was 0.6 °C and the ΔTm at 30 µM (rat VMAT2-His; [4]) was 0.71 °C. It also gave a ΔTm at 90 µM (rat VMAT2-His; [4]) of 1.13 °C, a ΔTm at 270 µM (rat VMAT2-His; [4]) of 1.82 °C and a ΔTm at 11 µM (rat VMAT2-His; [5]) of 0.69 °C. For the same molecule, the ΔTm at 33 µM (rat VMAT2-His; [6]) was 0.58 °C, the IC50 (rat VMAT2 Q143A) was 354 ± 83 nM and the “fold increased IC50 vs wild-type” value (rat VMAT2 Q143A; Q143A) was about 10 fold. The IC50 (rat VMAT2) was 39 ± 17 nM, the “VMAT2-specific FFN206 uptake relative to DMSO (=1), replicate samples” value (rat VMAT2) was -0.0048 and -0.08665 and -0.06177 and 0.05752 and the “FFN206 uptake relative to no compound (=1), replicate samples” value (from here on “FFN206 uptake relative to no compound”) (rat VMAT2; compound 0.0152 μM) was 0.7804 and 0.7848 and 0.755 and 0.7991. The “FFN206 uptake relative to no compound” value (rat VMAT2; compound 0.1372 μM) was 0.4886 and 0.4837 and 0.4034 and 0.5734, the “FFN206 uptake relative to no compound” value (rat VMAT2; compound 0.4115 μM) was 0.4342 and 0.3743 and 0.3683 and 0.4657 and the “FFN206 uptake relative to no compound” value (rat VMAT2; compound 1.2346 μM) was 0.3953 and 0.3737 and 0.3153 and 0.4191. The “FFN206 uptake relative to no compound” value (rat VMAT2; compound 3.7037 μM) was 0.3802 and 0.3604 and 0.2907 and 0.3691, the “FFN206 uptake relative to no compound” value (rat VMAT2; compound 11.1111 μM) was 0.4118 and 0.377 and 0.294 and 0.3618 and the “FFN206 uptake relative to no compound” value (rat VMAT2; compound 100.0000 μM) was 0.3782 and 0.3789 and 0.3057 and 0.3727. The IC50 (rat VMAT2 P314A) was 132 ± 8 nM, the “fold increased IC50 vs wild-type” value (rat VMAT2 P314A; P314A) was “approx. 3 fold” and the activity (VMAT2 [2]; hek293 cells) was 36.5 ± 7.71%. It also gave an IC50 (human VMAT2) of 23 nM.

For `COc1ccc(CN2CCN(C(c3ccc(F)cc3)c3ccc(F)cc3)CC2)c(OC)c1OC` [Lomerizine, Lomerizine hydrochloride], the “effect on [3H]-DTBZ binding compared with DMSO control (one-way ANOVA, p < 0.001)” value (VMAT2 [1]) was “no statistically significant effect”, the ΔTm (rat VMAT2-His; [3]) was −7.51 ± 0.04 oC and the ΔTm at 12 µM (rat VMAT2-His; [4]) was -0.81 °C. For the same molecule, the ΔTm at 37 µM (rat VMAT2-His; [4]) was -0.99 °C, the ΔTm at 10 µM (rat VMAT2-His; [4]) was -2.21 °C and the ΔTm at 30 µM (rat VMAT2-His; [4]) was -1.43 °C. For the same molecule, the ΔTm at 90 µM (rat VMAT2-His; [4]) was -2.04 °C, the ΔTm at 270 µM (rat VMAT2-His; [4]) was -5.36 °C and the ΔTm at 11 µM (rat VMAT2-His; [5]) was -1.46 °C. The ΔTm at 33 µM (rat VMAT2-His; [6]) was -1.47 °C, the IC50 (rat VMAT2) was 3900 ± 1690 nM and the “VMAT2-specific FFN206 uptake relative to DMSO (=1), replicate samples” value (rat VMAT2) was 0.1198 and 0.07933 and 0.1667 and 0.07626. The activity (VMAT2 [2]; hek293 cells) was 113 ± 23.2%.
